Legend:
lysyl oxidase = settings: various models (e.g. CCl4, bleomycin, quartz, cancer) and tissues (e.g. liver, lung and dermis); cited from earlier work
LOX = settings: CIA rats; cited from earlier work
LOXL2 = target: T1, LOXL2 (Homo sapiens, UniProt Q9Y4K0); experiment: Time-dependent inhibition of LOXL2, Amplex Red oxidation assay; type: biochemical; settings: for IC50: 37 °C
T1 sequence (Q9Y4K0 26-774): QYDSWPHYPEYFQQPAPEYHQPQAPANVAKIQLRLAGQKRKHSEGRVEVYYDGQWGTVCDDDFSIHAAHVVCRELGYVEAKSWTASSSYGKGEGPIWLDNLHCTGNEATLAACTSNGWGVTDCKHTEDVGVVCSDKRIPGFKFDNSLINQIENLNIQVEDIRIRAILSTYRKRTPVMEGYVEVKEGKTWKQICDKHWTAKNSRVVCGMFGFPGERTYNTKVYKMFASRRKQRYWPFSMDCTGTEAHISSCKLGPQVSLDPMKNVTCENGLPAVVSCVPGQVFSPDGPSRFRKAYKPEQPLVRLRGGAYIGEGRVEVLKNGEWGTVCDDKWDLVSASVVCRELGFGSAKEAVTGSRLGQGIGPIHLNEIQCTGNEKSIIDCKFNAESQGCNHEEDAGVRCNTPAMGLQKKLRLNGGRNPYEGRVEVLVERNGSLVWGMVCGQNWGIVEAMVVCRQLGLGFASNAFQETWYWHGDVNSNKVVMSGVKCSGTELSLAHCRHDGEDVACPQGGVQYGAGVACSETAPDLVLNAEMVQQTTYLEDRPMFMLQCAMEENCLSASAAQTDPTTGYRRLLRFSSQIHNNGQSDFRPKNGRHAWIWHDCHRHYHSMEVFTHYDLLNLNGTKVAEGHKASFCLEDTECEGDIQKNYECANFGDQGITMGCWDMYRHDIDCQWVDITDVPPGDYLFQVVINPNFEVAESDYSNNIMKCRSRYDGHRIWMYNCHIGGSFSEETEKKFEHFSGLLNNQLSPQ
Method: The time dependent inhibitory effects of the Compound 1 of the present invention were tested against the given LOXL1 preparation and LOXL2 preparation using a method based on the detection of hydrogen peroxide with an Amplex Red oxidation assay [Zhou et al. 1997]. The assay was developed for use in either 384 or 96 well format. Briefly, in a standard black, clear bottom 384 well plate assay 25 µL of a dilution of any of the isoenzymes and orthologues in 1.2 M urea, 50 mM sodium borate buffer (pH 8.2) were added into each well in the presence of […] and 0.5 mM pargyline (to inhibit SSAO and MAO-B and MAO-A, respectively; not necessary if the enzyme is from a recombinant or purified form). Test compound (Compound 1) was dissolved in DMSO and tested in a Concentration Response Curve (CRC) with 11 data points, typically in the micromolar or nanomolar range after incubation with the enzyme for different time points at 37 °C. 25 μL of a reaction mixture containing twice the KM concentration of putrescine (Sigma Aldrich, e.g. 20 mM for LOXL1 or 10 mM for LOXL2), 120 µM Amplex Red (Thermo Fisher Scientific) and 1.5 U/mL horseradish peroxidase (Sigma Aldrich) prepared in 1.2 M urea, 50 mM sodium borate buffer (pH 8.2) were then added to the corresponding wells. The fluorescence (RFU) was read every 2.5 min for 30 min at 37 °C, excitation 544 nm and emission 590 nm (Optima; BMG labtech). The slope/min of the kinetics for each well was calculated using MARS data analysis software (BMG labtech) and this value was used to deduce the IC50 value (Dotmatics).

Human DAO = target: T2, Human DAO (Homo sapiens, UniProt P19801); experiment: Inhibition of human recombinant DAO; type: biochemical; settings: 2 hours incubation; substrate putrescine 200 μM
T2 construct: Prof; Boehm, Department of Clinical Pharmacology, Medical University, Vienna (gift)
T2 sequence (P19801 20-751): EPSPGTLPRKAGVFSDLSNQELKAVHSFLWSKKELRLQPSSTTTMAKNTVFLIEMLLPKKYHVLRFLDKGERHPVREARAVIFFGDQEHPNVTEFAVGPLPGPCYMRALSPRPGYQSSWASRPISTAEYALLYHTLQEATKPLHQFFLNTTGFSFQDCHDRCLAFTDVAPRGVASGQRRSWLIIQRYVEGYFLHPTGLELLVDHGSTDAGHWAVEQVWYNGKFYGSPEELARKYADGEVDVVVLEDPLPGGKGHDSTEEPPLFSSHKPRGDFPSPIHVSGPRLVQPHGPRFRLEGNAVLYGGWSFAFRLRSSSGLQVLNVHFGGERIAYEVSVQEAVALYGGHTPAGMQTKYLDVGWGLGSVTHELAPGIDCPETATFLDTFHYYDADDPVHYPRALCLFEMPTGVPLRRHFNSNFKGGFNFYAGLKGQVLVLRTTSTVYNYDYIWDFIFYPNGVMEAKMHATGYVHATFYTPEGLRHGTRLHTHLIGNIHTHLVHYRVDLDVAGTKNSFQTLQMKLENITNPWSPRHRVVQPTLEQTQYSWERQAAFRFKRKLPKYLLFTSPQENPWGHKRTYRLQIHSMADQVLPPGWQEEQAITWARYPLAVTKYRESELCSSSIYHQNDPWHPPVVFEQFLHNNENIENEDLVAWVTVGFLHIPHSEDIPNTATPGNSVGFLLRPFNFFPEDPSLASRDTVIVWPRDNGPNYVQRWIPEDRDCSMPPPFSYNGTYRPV

Human MAO-A = target: T3, Human MAO-A (Homo sapiens, UniProt P21397); experiment: Inhibition of human recombinant MAO-A; type: biochemical; settings: 2 hours incubation; substrate tyramine 200 μM
T3 construct: purchased Sigma Aldrich
T3 sequence (P21397 whole entry): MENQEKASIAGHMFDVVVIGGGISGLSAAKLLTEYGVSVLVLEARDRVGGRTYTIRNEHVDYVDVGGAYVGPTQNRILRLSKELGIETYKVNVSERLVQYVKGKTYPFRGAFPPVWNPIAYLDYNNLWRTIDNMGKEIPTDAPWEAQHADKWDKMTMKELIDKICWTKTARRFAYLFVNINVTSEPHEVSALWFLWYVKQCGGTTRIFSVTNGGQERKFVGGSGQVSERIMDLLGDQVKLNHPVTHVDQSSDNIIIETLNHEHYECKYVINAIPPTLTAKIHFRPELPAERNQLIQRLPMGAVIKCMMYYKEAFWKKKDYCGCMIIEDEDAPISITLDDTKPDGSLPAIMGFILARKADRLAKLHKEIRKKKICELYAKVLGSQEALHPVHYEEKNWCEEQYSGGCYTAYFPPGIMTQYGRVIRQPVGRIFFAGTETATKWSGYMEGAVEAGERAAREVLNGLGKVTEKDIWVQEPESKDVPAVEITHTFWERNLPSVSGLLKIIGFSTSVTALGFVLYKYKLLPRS

[1] = Solubility and stability of test item in DMSO vehicle; type: physicochemical; settings: for Stability in vehicle DMSO: at 20 μg/mL and 50000 μg/mL
Method: The test item was soluble in DMSO at 50 mg/mL and was used as the vehicle of choice in the mutation assay.

[2] = test system: TA98, TA100, TA1535 and TA1537 strains of Salmonella typhimurium and WP2uvrA (pKM101) strain of Escherichia coli; experiment: Bacterial Reverse Mutation Test, initial and confirmatory mutation assay
Method: The test item Compound 1 was tested for its mutagenic potential in the bacterial reverse mutation assay. The study was conducted using TA98, TA100, TA1535 and TA1537 strains of Salmonella typhimurium and WP2uvrA (pKM101) strain of Escherichia coli in three phases; a preliminary toxicity test, an initial mutation assay and a confirmatory mutation assay. The bacterial tester strains were exposed to the test item in the presence and absence of metabolic activation system (S9 fraction prepared from Aroclor 1254 induced rat liver).
The bacterial tester strains were exposed to the test item in triplicate at 50, 158, 500, 1581 and 5000 μg/plate. The initial mutation assay was conducted using the direct plate incorporation mode of exposure whereas the confirmatory mutation assay was carried out using the pre-incubation mode of exposure. The vehicle control (DMSO) and the appropriate positive controls were tested simultaneously. The mean and standard deviation of numbers of revertant colonies were calculated for each test dose and the controls for all the tester strains.

IC50 (LOXL2; 0′ incubation) [nM] | IC50 (LOXL2; 15′ incubation) [nM] | IC50 (LOXL2; 30′ incubation) [nM] | IC50 (LOXL2; 1 h incubation) [nM] | IC50 (LOXL2; 2 h incubation) [nM] | IC50 (LOXL2; 4 h incubation) [nM] | IC50 (Human DAO) [µM] | IC50 (Human MAO-A) [µM] | solubility ([1]; dmso, organic solvent or mixture) [mg/mL] | Stability in vehicle DMSO ([1]; refrigerated temperature) [days] | Stability in vehicle DMSO ([1]; room temperature) [days] | Compound | Reduction of collagen content (lysyl oxidase) | Effect on inflammation, synovial hyperplasia, angiogenesis, MMP-2 and MMP-9 expression (LOX) | Time dependent LOXL2 inhibition (LOXL2; apparent potency increasing with time) | Mutagenic increase in revertant colonies ([2]; 50-5000 μg/plate, with and without metabolic activation (S9), initial and confirmatory assay, all tester strains) | Mutagenicity ([2]; up to the top dose 5000 μg/plate)
– | – | – | – | – | – | – | – | – | – | – | N#CCCN [BAPN, β-aminopropionitrile, reference compound] | efficacious in reducing collagen content | attenuate inflammation, synovial hyperplasia, angiogenesis and expression of MMP-2 and MMP-9 | – | – | –
14700 | 5580 | 1710 | 890 | 410 | 310 | > 100 | > 100 | ≥ 50 | ≥ 4 | ≥ 0.25 | NC/C(=C\F)CS(=O)(=O)c1ccccc1 [Compound 1, (E)-3-fluoro-2-((phenylsulfonyl)methyl)prop-2-en-1-amine] | – | – | time dependent LOXL1 and LOXL2 inhibition | did not show any positive mutagenic increase | not mutagenic

Reference: US20260364030A1, “NOVEL SELECTIVE INHIBITORS OF LYSYL OXIDASES” (Syntara Limited, priority 2022, published 2026)
